Source: US20030072716A1, “Renewable, carbohydrate based CO2-philes” (priority 2001, published 2003)

Columns and labels:
[1] = Deliquescence, swelling and dissolution in CO2 in a high-pressure view cell near room temperature; format: physicochemical; details: for solubility / miscibility in liquid CO2: BGLU at 23.0° C., 60.5 bar
Text: The interaction of BGLU in carbon dioxide was examined in a high-pressure view cell. The BGLU was exposed to carbon dioxide at near room temperature and a pressure of from 35 to 40 bar.
The procedure according to Example 1 was repeated except that the carbon dioxide pressure was 55.9 bar. A solid to liquid transition (i.e., deliquescence) of the BGLU was observed. […] See FIG. 3, Panel (C) and FIG. 3, Panel (D). Upon reaching liquid-vapor equilibrium pressure, the liquid carbon dioxide formed a separate layer on top of the viscous melt containing carbon dioxide.
BGLU is a white solid that melts at 132° C. under atmospheric pressure conditions (FIG. 3, Panel (A)). However, as BGLU is exposed to CO2 near room temperature (23.0° C.) in a conventional high-pressure view cell, it absorbs CO2 and becomes “wetted” with CO2 at a pressure of 35-40 bar. The white solid appears as a salt does in a humid environment. Furthermore, at a gaseous CO2 pressure of 55.9 bar a solid-to-liquid transition (deliquescence) occurs (FIG. 3, Panel (B)). This is analogous to the deliquescence of hygroscopic materials absorbing atmospheric moisture. […] Upon reaching the liquid-vapor equilibrium pressure, the liquid CO2 forms a separate layer on top of the viscous melt containing CO2. However, the melt easily mixes with the upper layer of liquid CO2 on stirring and forms a single-phase liquid mixture in contact with the gaseous CO2 phase (FIG. 3, Panel (E)). Further addition of CO2 only dilutes this liquid phase (FIG. 3F). Although, CO2-induced swelling (Rover et al., (1999) Macromolecules 32: 8965-8973) and CO2-assisted melting point depression (Zhang & Handa, (1997) Macromolecules 30: 8505-8507.) have been reported in polymers by sorption of CO2 under high pressures, the materials are not readily miscible in liquid and supercritical CO2, indicating the lack of a significant attractive interaction.

[2] = Solubility and cloud-point behaviour in supercritical CO2 at 40 °C; format: physicochemical; details: for miscibility with CO2 from cloud-point data: scCO2, 40.0° C., relatively low pressures, up to 30% (wt); for solubility behaviour in supercritical CO2: supercritical CO2, 40° C.
Protocol: The solubility of BGLU and AGLU in supercritical carbon dioxide were examined at 40° C. […] The behavior is illustrated in FIG. 3. At the cloud point pressure, phase separation commences between the supercritical carbon dioxide and the sugar ester melt. Upon lowering the pressure, the material reappears in the solid state (see FIG. 4).
The cloud-point pressures of these systems in scCO2 were examined at 40.0° C. As in the subcritical case, initially the solid melts and swells (for AGLU and BGLU) and all three peracetylated sugars readily go into a single-phase, scCO2 system. A plot of the cloud-point pressure versus the weight percent for AGLU, BGLU, and BGAL dissolved in supercritical CO2 at 40.0° C. is given in FIG. 4. At the cloud-point pressure, phase separation begins between scCO2 and the sugar ester. Upon lowering the pressure, the material reappears in the solid state. No cloud-point measurements were made above 30% (wt) due to limitations arising from the volume of the view cell and the rapid swelling of the sample in the cases of AGLU and BGLU.

Row | concentration in the CO2-induced melt ([1]; approximate estimate, melt can be diluted with liquid or scCO2 in any proportion) | swelling of the melt on CO2 absorption ([1]; changes in gaseous CO2 pressure of only 2 and 3 bar above deliquescence pressure) | gaseous CO2 pressure at which solid-to-liquid transition (deliquescence) occurs ([1]; gaseous CO2, 23.0° C., high-pressure view cell) [bar] | CO2 pressure at which the solid absorbs CO2 and becomes wetted ([1]; near room temperature (23.0° C.)) | miscibility with CO2 from cloud-point data [2] | solubility behaviour in supercritical CO2 [2] | deliquescence point, amount lower than that of BGLU ([1]; difference relative to BGLU) | SMILES | solubility / miscibility in liquid CO2 [1] | deliquescence in CO2 ([1]; contact with CO2)
1 | more than 80 wt % | swells to many times its original volume | 55.9 | 35-40 bar | complete miscibility | melted, swelled, and readily dissolved |  | CC(=O)OC[C@H]1O[C@@H](OC(C)=O)[C@H](OC(C)=O)[C@@H](OC(C)=O)[C@@H]1OC(C)=O [BGLU, beta 1,2,3,4,6-pentaacetyl-D-glucose] | complete miscibility | 
2 |  |  |  |  |  |  |  | CC(=O)OC[C@H]1O[C@@H](OC(C)=O)[C@H](OC(C)=O)[C@@H](OC(C)=O)[C@H]1OC(C)=O [BGAL, beta 1,2,3,4,6-pentaacetyl β-D-galactose] | readily soluble | does not exhibit deliquescence
3 |  |  |  |  | complete miscibility | melted, swelled, and readily dissolved | 6-7 bar | CC(=O)OC[C@H]1O[C@H](OC(C)=O)[C@H](OC(C)=O)[C@@H](OC(C)=O)[C@@H]1OC(C)=O [AGLU, alpha 1,2,3,4,6-pentaacetyl-D-glucose] |  | 
